Assay results reported in PubChem BioAssay (NCI).
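These data come from cells grown in 96-well plates and exposed to compound for 48 hours at five concentrations. GI50 is the concentration that inhibits growth by half. The concentration for full growth arrest is given as TGI.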

Columns and labels:
Test in all cases: DTP human tumour cell line panel, 48 h
[1] = tested on: HCT-116 colon
[2] = tested on: UACC-62 melanoma
[3] = tested on: CAKI-1 renal
[4] = tested on: NCI-H226 lung
[5] = tested on: MDA-MB-231 breast
[6] = tested on: SF-295 CNS
[7] = tested on: COLO 205 colon
[8] = tested on: KM12 colon
[9] = tested on: SK-MEL-28 melanoma
[10] = tested on: LOX IMVI melanoma
[11] = tested on: EKVX NSCLC
[12] = tested on: OVCAR-4 ovarian
[13] = tested on: M14 melanoma
[14] = tested on: TK-10 renal
[15] = tested on: SF-539 CNS
[16] = tested on: SK-MEL-5 melanoma
[17] = tested on: PC-3 prostate
[18] = tested on: RPMI-8226 leukemia
[19] = tested on: OVCAR-8 ovarian
[20] = tested on: K-562 leukemia
[21] = tested on: OVCAR-3 ovarian
[22] = tested on: HS 578T breast
[23] = tested on: SN12C renal
[24] = tested on: SK-OV-3 ovarian
[25] = tested on: HT29 colon
[26] = tested on: NCI/ADR-RES ovarian
[27] = tested on: A549 NSCLC
[28] = tested on: CCRF-CEM leukemia
[29] = tested on: HOP-92 NSCLC
[30] = tested on: UO-31 renal
[31] = tested on: MOLT-4 leukemia
[32] = tested on: MCF7 breast
[33] = tested on: SW-620 colon
[34] = tested on: HCT-15 colon
[35] = tested on: DU-145 prostate
[36] = tested on: T-47D breast
[37] = tested on: NCI-H460 lung
[38] = tested on: SR leukemia
[39] = tested on: RXF 393 renal
[40] = tested on: IGROV1 ovarian
[41] = tested on: BT-549 breast
[42] = tested on: HCC-2998 colon
[43] = tested on: SF-268 CNS
[44] = tested on: NCI-H522 lung
[45] = tested on: UACC-257 melanoma
[46] = tested on: MDA-MB-435
[47] = tested on: HL-60(TB) leukemia
[48] = tested on: HOP-62 NSCLC
[49] = tested on: A498 renal
[50] = tested on: SNB-75 CNS
[51] = tested on: 786-0 renal
[52] = tested on: U251 CNS
[53] = tested on: NCI-H23 lung
[54] = tested on: SK-MEL-2 melanoma
[55] = tested on: SNB-19 CNS
[56] = tested on: OVCAR-5 ovarian
[57] = tested on: ACHN renal
[58] = tested on: MALME-3M melanoma

## CC1CN1C1=CC(=O)c2c(c(CO)cn2C)C1=O (configuration not stated)
[1]
  GI50: 0.137 µM
  TGI: 1.03 µM
[2]
  GI50: 0.144 µM
  TGI: 0.431 µM
[3]
  GI50: 0.018 µM
  TGI: 0.293 µM
[4]
  GI50: 0.324 µM
  TGI: 2.1 µM
[5]
  GI50: 20 µM
  TGI: 46.2 µM
[6]
  GI50: 0.076 µM
  TGI: 0.566 µM
[7]
  GI50: 0.171 µM
[8]
  GI50: 0.261 µM
  TGI: 1.38 µM
[9]
  GI50: 0.491 µM
[10]
  GI50: 0.066 µM
  TGI: 0.387 µM
[11]
  GI50: 3.09 µM
  TGI: 17 µM
[12]
  GI50: 1.66 µM
  TGI: 6.34 µM
[13]
  GI50: 0.0139 µM
  TGI: 0.127 µM
[14]
  GI50: 0.261 µM
  TGI: 1.49 µM
[15]
  GI50: 0.0313 µM
  TGI: 0.23 µM
[16]
  GI50: 0.0577 µM
  TGI: 0.191 µM
[17]
  GI50: 0.313 µM
  TGI: 3.3 µM
[18]
  GI50: 0.241 µM
  TGI: 3.32 µM
[19]
  GI50: 0.628 µM
  TGI: > 20.5 µM
[20]
  GI50: 0.833 µM
  TGI: 64.5 µM
[21]
  GI50: 0.254 µM
  TGI: 1.11 µM
[22]
  GI50: 0.689 µM
[23]
  GI50: 0.0706 µM
  TGI: 1.28 µM
[24]
  GI50: 0.509 µM
  TGI: 23.2 µM
[25]
  GI50: 0.22 µM
[26]
  GI50: 0.0848 µM
  TGI: 0.926 µM
[27]
  GI50: 0.0623 µM
  TGI: 3.18 µM
[28]
  GI50: 3.35 µM
  TGI: 62.8 µM
[29]
  GI50: 9.92 µM
  TGI: 35.6 µM
[30]
  GI50: 0.124 µM
  TGI: 0.386 µM
[31]
  GI50: 5.43 µM
  TGI: > 100 µM
[32]
  GI50: 0.0634 µM
[33]
  GI50: 0.105 µM
  TGI: 1.02 µM
[34]
  GI50: 0.0651 µM
  TGI: 0.649 µM
[35]
  GI50: < 0.0112 µM
  TGI: 0.234 µM
[36]
  GI50: 8.34 µM
  TGI: > 34.6 µM
[37]
  TGI: 0.651 µM
[38]
  GI50: 0.0112 µM
  TGI: 0.069 µM
[39]
  GI50: 0.861 µM
[40]
  GI50: 0.306 µM
  TGI: 5.15 µM
[41]
  GI50: 0.293 µM
  TGI: 1.57 µM
[42]
  GI50: 0.105 µM
  TGI: 0.415 µM
[43]
  GI50: 0.257 µM
  TGI: 5.28 µM
[44]
  GI50: 0.2 µM
  TGI: 1.98 µM
[45]
  GI50: 0.925 µM
  TGI: 3.65 µM
[46]
  GI50: 0.311 µM
  TGI: 1.32 µM
[47]
  GI50: 22.9 µM
  TGI: 75.2 µM
[48]
  GI50: 0.062 µM
  TGI: 0.386 µM
[49]
  GI50: 0.358 µM
  TGI: 1.76 µM
[50]
  GI50: 0.438 µM
  TGI: 2.65 µM
[51]
  GI50: 0.232 µM
  TGI: 2.52 µM
[52]
  GI50: 0.152 µM
  TGI: 0.835 µM
[53]
  TGI: 0.0265 µM
[54]
  GI50: 0.3 µM
  TGI: 3.32 µM
[55]
  GI50: 0.247 µM
  TGI: 3.74 µM
[56]
  GI50: 1.55 µM
  TGI: 14.8 µM

## COc1ccc(/C=C/C(=O)c2cccc(B(O)O)c2)cc1O
[1]
  GI50: 2.55 µM
  TGI: 10.7 µM
[2]
  GI50: 3.83 µM
  TGI: 17.3 µM
[3]
  GI50: 3.43 µM
  TGI: 19.3 µM
[4]
  GI50: 4.79 µM
  TGI: > 100 µM
[5]
  GI50: 3.44 µM
  TGI: > 100 µM
[6]
  GI50: 3.17 µM
  TGI: 13.2 µM
[7]
  GI50: 13 µM
  TGI: 27.5 µM
[8]
  GI50: 2.51 µM
  TGI: 6.47 µM
[9]
  GI50: 6.72 µM
  TGI: > 100 µM
[10]
  GI50: 2.07 µM
  TGI: 5.37 µM
[12]
  GI50: 7.91 µM
  TGI: 21 µM
[13]
  GI50: 4.23 µM
  TGI: 18.6 µM
[14]
  GI50: 4.4 µM
  TGI: 24.1 µM
[15]
  GI50: 2.4 µM
  TGI: 8.46 µM
[16]
  GI50: 3.76 µM
  TGI: 14.9 µM
[17]
  GI50: 6.18 µM
  TGI: 32.9 µM
[18]
  GI50: 3.39 µM
  TGI: 33.3 µM
[19]
  GI50: 3.82 µM
  TGI: > 100 µM
[20]
  GI50: 1.33 µM
  TGI: > 100 µM
[21]
  GI50: 3.44 µM
  TGI: 10.9 µM
[22]
  GI50: 2.28 µM
  TGI: 8.87 µM
[23]
  GI50: 3.26 µM
  TGI: 25.7 µM
[24]
  GI50: 6.14 µM
  TGI: > 100 µM
[25]
  GI50: 9.77 µM
  TGI: 44.4 µM
[26]
  GI50: 3.09 µM
  TGI: 28.6 µM
[27]
  GI50: 3.35 µM
  TGI: 46.9 µM
[28]
  GI50: 3.13 µM
  TGI: 14.1 µM
[29]
  GI50: 1.42 µM
  TGI: 29.7 µM
[30]
  GI50: 3.63 µM
  TGI: 17.4 µM
[31]
  GI50: 4.04 µM
  TGI: > 100 µM
[32]
  GI50: 2.21 µM
  TGI: 12.4 µM
[57]
  GI50: 4.59 µM
  TGI: 71.1 µM
[33]
  GI50: 2.79 µM
  TGI: 11.5 µM
[34]
  GI50: 2.44 µM
  TGI: 12.3 µM
[35]
  GI50: 2.8 µM
  TGI: 7.88 µM
[36]
  GI50: 3.01 µM
  TGI: 16 µM
[37]
  GI50: 3.11 µM
  TGI: 11.5 µM
[38]
  GI50: 2.56 µM
  TGI: 30.3 µM
[39]
  GI50: 2.8 µM
  TGI: 11.4 µM
[40]
  GI50: 5.39 µM
  TGI: 33 µM
[41]
  GI50: 2.82 µM
  TGI: 14.2 µM
[42]
  GI50: 2.67 µM
  TGI: 7.47 µM
[43]
  GI50: 3.46 µM
  TGI: 19.9 µM
[44]
  GI50: 3.33 µM
  TGI: 13.5 µM
[45]
  GI50: 10.6 µM
  TGI: 30.9 µM
[58]
  GI50: 15.3 µM
  TGI: 32.1 µM
[46]
  GI50: 1.89 µM
  TGI: 4.57 µM
[48]
  GI50: 4.24 µM
  TGI: 18.6 µM
[49]
  GI50: 2.31 µM
  TGI: 11.2 µM
[50]
  GI50: 2.74 µM
  TGI: 12.2 µM
[51]
  GI50: 4.33 µM
  TGI: 40.8 µM
[52]
  GI50: 3.41 µM
  TGI: 13.2 µM
[53]
  GI50: 4.67 µM
  TGI: 22.7 µM
[54]
  GI50: 15.6 µM
  TGI: 58.9 µM
[55]
  GI50: 5.1 µM
  TGI: 27.3 µM
[56]
  GI50: 9.25 µM
  TGI: 31.6 µM

## Cn1cnc([N+](=O)[O-])c1[Se]c1ncnc2nc[nH]c12
[1]
  TGI: 74.5 µM
[2]
  TGI: 10.1 µM
[3]
  TGI: 22.1 µM
[4]
  TGI: 22.6 µM
[5]
  TGI: 19.2 µM
[6]
  TGI: > 100 µM
[7]
  TGI: 33.3 µM
[8]
  TGI: 54.1 µM
[9]
  TGI: 20.3 µM
[10]
  TGI: 10.8 µM
[11]
  TGI: 47.4 µM
[12]
  TGI: 23.5 µM
[13]
  TGI: 24.8 µM
[14]
  TGI: > 100 µM
[15]
  TGI: 30.9 µM
[16]
  TGI: 6.6 µM
[17]
  TGI: > 100 µM
[18]
  TGI: 71.7 µM
[19]
  TGI: 32.2 µM
[20]
  TGI: 25.6 µM
[21]
  TGI: 29.5 µM
[22]
  TGI: 39.9 µM
[23]
  TGI: 32.8 µM
[24]
  TGI: > 100 µM
[25]
  TGI: 84.4 µM
[26]
  TGI: > 100 µM
[27]
  TGI: > 100 µM
[28]
  TGI: 34.1 µM
[29]
  TGI: 27.9 µM
[30]
  TGI: 60 µM
[31]
  TGI: 22 µM
[32]
  TGI: 41.8 µM
[57]
  TGI: 83.5 µM
[33]
  TGI: 26.8 µM
[34]
  TGI: 81.6 µM
[35]
  TGI: > 100 µM
[36]
  TGI: 32.8 µM
[37]
  TGI: > 100 µM
[38]
  TGI: 17 µM
[39]
  TGI: 38.7 µM
[40]
  TGI: > 100 µM
[41]
  TGI: 33.8 µM
[43]
  TGI: 78.9 µM
[44]
  TGI: 14.7 µM
[45]
  TGI: 16.8 µM
[58]
  TGI: 21.1 µM
[46]
  TGI: 19.5 µM
[48]
  TGI: 50.3 µM
[49]
  TGI: 37 µM
[50]
  TGI: > 100 µM
[51]
  TGI: 26.5 µM
[52]
  TGI: 44 µM
[53]
  TGI: 61.1 µM
[54]
  TGI: 34.5 µM
[55]
  TGI: 85.8 µM
[56]
  TGI: 36.2 µM
